# Reference: patent publication US8426175B2, “Method for the production of a fermentation product from a pretreated lignocellulosic feedstock” (Iogen Energy Corporation, priority 2007, dated 2013)
# Read-outs that look alike come from different tables or passages of the source.
# Assays:
# [1] = system: contaminated recombinant Saccharomyces cultures; experiment: Batch fermentation of xylose to ethanol inoculated with chlorine dioxide-treated, recycled yeast slurry; type: cell-based
# Method: Saccharomyces cells from a frozen glycerol stock were used to inoculate 4 L of Sc Inoculation Medium (pH 6). The inoculum was grown with shaking at 160 rpm for 24 h at 30° C. The cells were harvested by centrifugation (4000 rpm for 5 min) and the entire cell pellet was resuspended in about 50 mL of the supernatant and this was used to inoculate 20 L of Sc Propagation Medium (pH 5.0). A fed-batch fermentation was run for 4 days with mild aeration of 56 slpm and 500 rpm agitation by mechanical stirring. The pH was maintained at 5.0 and the temperature was maintained at 30° C. for the first two days followed by 28° C. for the last two days. A 60 g/L glucose solution was fed to the vessel at a rate of 83.3 mL/h. The culture was sampled three times daily and the samples analyzed for cell growth, xylose and glucose. At the end of the fermentation, the entire broth was harvested and the cells concentrated by centrifugation (4000 rpm for 5 min in multiple 4 L Nalgene bottles). The cell pellets were resuspended to a concentration of 22.5 g cell mass/L. This was used to inoculate 10 L of Sc Fermentation Medium. Batch fermentation was run for 2-3 days with 1 slpm aeration, 250 rpm mechanical agitation. The pH was maintained at 6.0 and the temperature maintained at 28-30° C. The culture was sampled three times daily and the samples analyzed for cell growth, xylose glucose and ethanol.
# (§1) Xylose and glucose concentrations of each sample were measured as follows: 2 mL of the broth were centrifuged at 14,000 rpm for 3 min to remove cells and the supernatant filtered through a 0.2 μm syringe filter. 10× dilutions of the supernatant were prepared in 5 mM sulfuric acid solution. Dilutions were analyzed via HPLC using an Agilent 1100 Series HPLC stem equipped with an 1100 Series Autosampler and Pumping System and Chemstation control software. A Varian MetaCarb 87H column maintained at 50° C. was used for separation. The eluant was a 5 mM aqueous sulfuric acid solution with a flow rate of 0.600 mL/min. Glucose, ethanol, xylose and xylitol were quantified using an Agilent 1100 Series Refractive Index Detector. Acetic acid and lactic acid were measured using an Agilent 1200 Series Variable Wavelength Detector.
# […] The yeast slurry was treated with chlorine dioxide at 50 ppm, 300 ppm and 500 ppm. The yeast slurry was used to re-inoculate fermentors containing 10 L of Sc Fermentation Medium run in batch mode at a starting yeast concentration targeted at 22.5 g/L yeast, as described in Example 2a. The culture was sampled three times daily and the samples analyzed for xylose, lactic acid and ethanol as described in Example 2a.
# [2] = system: bacteria in contaminated yeast slurry; experiment: Bacterial enumeration on TSA + cycloheximide plates after ClO2 treatment of contaminated yeast slurry; type: cell-based
# Method: (§2) The yeast was concentrated by centrifugation (4 min, 4000 rpm) and resuspended in the original, contaminated supernatant to 20 g/L, 200 g/L or 300 g/L. Contamination was verified microscopically. The three slurries produced were cooled in an ice-water bath treated with either ClO2 at 0, 10, 50, 250, 500, 750 and 1000 ppm, serially diluted and plated on YM agar (3.0 g/L yeast extract, 3.0 g/L malt extract, 5 g/L peptone, 10 g/L glucose, 20 g/L agar)+chloramphenicol (34 μg/mL) plates for yeast and TSA (15 g/L pancreatic casein digest, 5 g/L enzymatic soy meal digest, 5 g/L NaCl, 15 g/L agar)+cycloheximide (0.05 μg/mL) plates for bacterial enumeration. Plates were incubated overnight at 30° C. and 37° C. for yeast and bacteria, respectively. Plates were counted the next day and bacterial colonies were verified microscopically.
# Saccharomyces yeast = details: for impact on the viability of the yeast: 500 ppm or higher
# Method: as §2
# [3] = system: bacterially contaminated Candida tropicalis culture; experiment: Batch fermentation of xylose to xylitol inoculated with chlorine dioxide-treated, recycled yeast slurry; type: cell-based; details: yeast slurry treated with 100 ppm at room temperature (FIG. 5)
# Method: as §1
# C. tropicalis cells from a frozen glycerol stock used to inoculate 2 L of Ct Inoculation Medium. The inoculum was grown with shaking at 160 rpm for 24 h at 30° C. The cells were harvested by centrifugation and the entire cell pellet was used to inoculate 2 L of Ct Xylose Medium. This culture was grown with shaking at 160 rpm for 24 h at 30° C. and the broth was used to inoculate 10 L of Ct Fermentation Medium. […] The culture was sampled three times daily and the samples analyzed for cell growth, xylose and xylitol as described in Example 2a. […]
# Lactobacillus strains = details: cited from earlier work
# [4] = 200 g/L yeast slurry treated at 300 ppm (FIG. 3B)
# [5] = 300 g/L yeast slurry treated at 500 ppm (FIG. 3C)
structure (smiles),measurement,setting,value
[O][Cl+][O-] [chlorine dioxide],ethanol product produced versus culture from slurry treated with 50 ppm,[1]; [4],significantly more
same,unwanted lactic acid byproduct produced versus culture from slurry treated with 50 ppm,[1]; [4],less
same,ethanol product produced versus culture from slurry treated with 50 ppm,[1]; [5],significantly more
same,unwanted lactic acid byproduct produced versus culture from slurry treated with 50 ppm,[1]; [5],less
same,rate of xylose consumption,"[1]; cells treated with the higher chlorine dioxide dosages (300, 500 ppm) vs 50 ppm",significantly faster
same,chlorine dioxide dosage that effectively suppresses bacterial growth,[2]; 20 g/L yeast cell suspension,≥ 250 ppm
same,chlorine dioxide dosage required for effective bacterial decontamination,[2]; 200 g/L yeast suspension,≥ 500 ppm
same,chlorine dioxide dosage required for effective bacterial decontamination,[2]; 300 g/L yeast suspension,≥ 500 ppm
same,impact on yeast viability,"Saccharomyces yeast; 20 g/L yeast cell suspension, 250 ppm or higher",little to no impact
same,impact on the viability of the yeast,Saccharomyces yeast; 200 g/L yeast suspension,little or no impact
same,impact on the viability of the yeast,Saccharomyces yeast; 300 g/L yeast suspension,little or no impact
same,xylitol fermentation product produced versus culture inoculated with the untreated slurry,[3],produced more
OO [hydrogen peroxide],reducing the viability of Lactobacillus,Lactobacillus strains; one of the Lactobacillus species tested,effective
O=S(O)O [sulfite],susceptibility of bacterial contaminants (two Lactobacillus strains),Lactobacillus strains; treatment of yeast cells concentrated by filtration,susceptible to sulfite only in the presence of oxygen
